# According to patent US6962906B2, “Oligonucleotide analogues, methods of synthesis and methods of use” (Active Motif, priority 2000, dated 2005):
# Test system: Target oligonucleotides (SEQ ID NO:33-36)
# Assay: Affinity PAGE capture of target DNA and RNA oligonucleotides, detection with ethidium bromide
# Format: binding
# Details: electrophoresis at 40° C.
# Excerpt: A HypNA-pPNA capture probe with the sequence: (Ch-Tp-Gh-Cp-Ah-Ap-Ah-Gp-Gh-Ap-Ch-Ap-Ch-Cp-Ah-Tp)-dG was synthesized coupled to a 5′ acrylamide residue as described in Example 19. The capture probe was co-polymerized with acrylamide as described in Example 18 in slots of an acrylamide gel as described in Rehman et al. (Nucleic Acids Research 27: 649-655 (1999)). Target oligonucleotides having the sequence: • d([…]) (SEQ ID NO:33)—complementary • d([…]) (SEQ ID NO:34)—mismatched • r([…]) (SEQ ID NO:35)—complementary • r([…]) (SEQ ID NO:36)—mismatched were electrophoresed through lanes of the gel at 40° C.
# Following electrophoresis, the gel was stained with ethidium bromide and photographed under UV illumination.
substance,measurement,setting,value
(Ch-Tp-Gh-Cp-Ah-Ap-Ah-Gp-Gh-Ap-Ch-Ap-Ch-Cp-Ah-Tp)-dG [capture HypNA-pPNA probe],capture of complementary target oligonucleotides in the gel (ethidium bromide fluorescence),"complementary DNA and RNA targets, lanes 1, 3, and 5",ethidium-stained fluorescent hybrids captured by the gel layer
same,capture of mismatched target oligonucleotides in the gel (ethidium bromide fluorescence),"single nucleobase mismatched DNA and RNA targets, lanes 2, 4, and 6",did not result in the capture of a target
